# Results from PubChem BioAssay AID2060897 (Molecular Pharmacology Branch, DTP, NCI, 2025).
# System: 966289-007-R4-J1-PDC complex spheroid viability
# Assay: Anticancer human tumor 966289-007-R4-J1-PDC patient-derived pancreatic adenocarcinoma cell line growth inhibition [RAS]
# Details: for IC50: curve of first compound; for viability, T/C: stronger effect = lower value
# Outline: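 Tumour cells grown as complex spheroids with HUVEC endothelial cells and mesenchymal stem cells, treated with RAS pathway inhibitor combinations. Each agent spans half-log steps from near clinical Cmax, or 10 microM where Cmax is unknown.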
# 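Note: spheroids exposed to agents for one week before readout.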
# 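Throughout, for viability, T/C: percent viability relative to DMSO vehicle control wells as 100%.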
smiles,measurement,setting,value
CC(C)n1nc(-c2ccc3oc(N)nc3c2)c2c(N)ncnc21 + C=CC(=O)N1CCN(c2nc(OCC3CCCN3C)nc3c(F)c(-c4nc(N)cc(C)c4C(F)(F)F)c(Cl)cc23)C(C)C1,IC50,second compound 0.00316 µM,36.3 nM
same,IC50,second compound 0.01 µM,32.9 nM
same,IC50,second compound 0.0316 µM,43.7 nM
same,IC50,second compound 0.1 µM,34.6 nM
same,IC50,second compound 0.316 µM,51.5 nM
same,IC50,second compound 1 µM,29.2 nM
same,"viability, T/C","second compound 0.00316 µM, first compound 0.000316 µM",116%
same,"viability, T/C","second compound 0.00316 µM, first compound 0.001 µM",83.6%
same,"viability, T/C","second compound 0.00316 µM, first compound 0.00316 µM",111%
same,"viability, T/C","second compound 0.00316 µM, first compound 0.01 µM",105%
same,"viability, T/C","second compound 0.00316 µM, first compound 0.0316 µM",54.5%
same,"viability, T/C","second compound 0.00316 µM, first compound 0.1 µM",17.7%
same,"viability, T/C","second compound 0.01 µM, first compound 0.000316 µM",110%
same,"viability, T/C","second compound 0.01 µM, first compound 0.001 µM",108%
same,"viability, T/C","second compound 0.01 µM, first compound 0.00316 µM",112%
same,"viability, T/C","second compound 0.01 µM, first compound 0.01 µM",94.2%
same,"viability, T/C","second compound 0.01 µM, first compound 0.0316 µM",51.5%
same,"viability, T/C","second compound 0.01 µM, first compound 0.1 µM",19.6%
same,"viability, T/C","second compound 0.0316 µM, first compound 0.000316 µM",123%
same,"viability, T/C","second compound 0.0316 µM, first compound 0.001 µM",113%
same,"viability, T/C","second compound 0.0316 µM, first compound 0.00316 µM",121%
same,"viability, T/C","second compound 0.0316 µM, first compound 0.01 µM",101%
same,"viability, T/C","second compound 0.0316 µM, first compound 0.0316 µM",62.5%
same,"viability, T/C","second compound 0.0316 µM, first compound 0.1 µM",18.9%
same,"viability, T/C","second compound 0.1 µM, first compound 0.000316 µM",103%
same,"viability, T/C","second compound 0.1 µM, first compound 0.001 µM",97.3%
same,"viability, T/C","second compound 0.1 µM, first compound 0.00316 µM",106%
same,"viability, T/C","second compound 0.1 µM, first compound 0.01 µM",106%
same,"viability, T/C","second compound 0.1 µM, first compound 0.0316 µM",52.4%
same,"viability, T/C","second compound 0.1 µM, first compound 0.1 µM",21.1%
same,"viability, T/C","second compound 0.316 µM, first compound 0.000316 µM",103%
same,"viability, T/C","second compound 0.316 µM, first compound 0.001 µM",82.2%
same,"viability, T/C","second compound 0.316 µM, first compound 0.00316 µM",132%
same,"viability, T/C","second compound 0.316 µM, first compound 0.01 µM",116%
same,"viability, T/C","second compound 0.316 µM, first compound 0.0316 µM",68.4%
same,"viability, T/C","second compound 0.316 µM, first compound 0.1 µM",24.9%
same,"viability, T/C","second compound 1 µM, first compound 0.000316 µM",92.5%
same,"viability, T/C","second compound 1 µM, first compound 0.001 µM",102%
same,"viability, T/C","second compound 1 µM, first compound 0.00316 µM",111%
same,"viability, T/C","second compound 1 µM, first compound 0.01 µM",91.9%
same,"viability, T/C","second compound 1 µM, first compound 0.0316 µM",47.1%
same,"viability, T/C","second compound 1 µM, first compound 0.1 µM",20.3%
CC1(C)CCC(Nc2ncc(C(F)(F)F)c(-c3c[nH]c4c(P(C)(C)=O)c(C#N)ccc34)n2)CN1 (centres undefined) + CCn1c(-c2cccnc2C(C)OC)c2c3cc(ccc31)N1CCOC(CC(NC(=O)C(C(C)C)N(C)C(=O)C3(F)CCN(C(=O)C#CC(C)(C)N(C)C)CC3)C(=O)N3CCCC(N3)C(=O)OCC(C)(C)C2)C1,IC50,second compound 0.000949 µM,4.98 nM
same,IC50,second compound 0.003 µM,5.32 nM
same,IC50,second compound 0.00949 µM,4.93 nM
same,IC50,second compound 0.03 µM,3.82 nM
same,IC50,second compound 0.0949 µM,4.06 nM
same,IC50,second compound 0.3 µM,2.89 nM
same,"viability, T/C","second compound 0.000949 µM, first compound 0.000949 µM",136%
same,"viability, T/C","second compound 0.000949 µM, first compound 0.003 µM",75.5%
same,"viability, T/C","second compound 0.000949 µM, first compound 0.00949 µM",17.6%
same,"viability, T/C","second compound 0.000949 µM, first compound 0.03 µM",7.64%
same,"viability, T/C","second compound 0.000949 µM, first compound 0.0949 µM",5.45%
same,"viability, T/C","second compound 0.000949 µM, first compound 0.3 µM",7.38%
same,"viability, T/C","second compound 0.003 µM, first compound 0.000949 µM",90.5%
same,"viability, T/C","second compound 0.003 µM, first compound 0.003 µM",77.4%
same,"viability, T/C","second compound 0.003 µM, first compound 0.00949 µM",22.3%
same,"viability, T/C","second compound 0.003 µM, first compound 0.03 µM",7.6%
same,"viability, T/C","second compound 0.003 µM, first compound 0.0949 µM",5.79%
same,"viability, T/C","second compound 0.003 µM, first compound 0.3 µM",7.11%
same,"viability, T/C","second compound 0.00949 µM, first compound 0.000949 µM",83.3%
same,"viability, T/C","second compound 0.00949 µM, first compound 0.003 µM",75.1%
same,"viability, T/C","second compound 0.00949 µM, first compound 0.00949 µM",16.9%
same,"viability, T/C","second compound 0.00949 µM, first compound 0.03 µM",8.28%
same,"viability, T/C","second compound 0.00949 µM, first compound 0.0949 µM",5.11%
same,"viability, T/C","second compound 0.00949 µM, first compound 0.3 µM",5.09%
same,"viability, T/C","second compound 0.03 µM, first compound 0.000949 µM",72%
same,"viability, T/C","second compound 0.03 µM, first compound 0.003 µM",59.6%
same,"viability, T/C","second compound 0.03 µM, first compound 0.00949 µM",13.6%
same,"viability, T/C","second compound 0.03 µM, first compound 0.03 µM",5.23%
same,"viability, T/C","second compound 0.03 µM, first compound 0.0949 µM",4.63%
same,"viability, T/C","second compound 0.03 µM, first compound 0.3 µM",3.91%
same,"viability, T/C","second compound 0.0949 µM, first compound 0.000949 µM",71.8%
same,"viability, T/C","second compound 0.0949 µM, first compound 0.003 µM",65.2%
same,"viability, T/C","second compound 0.0949 µM, first compound 0.00949 µM",7.56%
same,"viability, T/C","second compound 0.0949 µM, first compound 0.03 µM",3.47%
same,"viability, T/C","second compound 0.0949 µM, first compound 0.0949 µM",3.17%
same,"viability, T/C","second compound 0.0949 µM, first compound 0.3 µM",3.37%
same,"viability, T/C","second compound 0.3 µM, first compound 0.000949 µM",62.6%
same,"viability, T/C","second compound 0.3 µM, first compound 0.003 µM",49.6%
same,"viability, T/C","second compound 0.3 µM, first compound 0.00949 µM",6.28%
same,"viability, T/C","second compound 0.3 µM, first compound 0.03 µM",2.91%
same,"viability, T/C","second compound 0.3 µM, first compound 0.0949 µM",2.13%
same,"viability, T/C","second compound 0.3 µM, first compound 0.3 µM",1.99%
